Test results from patent US12655156B2, “Oxadiazolopyrazines and oxadiazolopyridines useful as mitochondrial uncouplers” (Virginia Tech Intellectual Properties, Inc., priority 2018, dated 2026).

Each compound was assayed on whole cells (NMuLi, C2C12, and L6 cells, isolated cardiomyocytes, human primary fibroblasts) (assay: Oxygen consumption rate (OCR) in whole cells, Seahorse XF-24 Flux Analyzer). Conditions: increase in OCR; binned EC50 values.
Assay type: cell-based
Procedure: Biological activities of the compounds synthesized is determined by determining increase in oxygen consumption rate (OCR).
Oxygen consumption rate (OCR) in whole cells is measured in general accordance with the method of Kenwood B M et al. (Mol. Met. (2014) 3:114-123).
OCR is measured using a Seahorse XF-24 Flux Analyzer (Seahorse Biosciences, North Billerica, MA). NMuLi, C2C12, and L6 cells are seeded in a Seahorse 24-well tissue culture plate at a density of 3.5×10^4 cells/well, isolated cardiomyocytes at a density of 4×10^4 cells/well, and human primary fibroblasts at a density of 1.1×10^4 cells/well. The cells are then allowed to adhere for 24 h. Prior to the assay, the media is changed to unbuffered DMEM containing pyruvate and glutamine (Gibco #12800-017, pH=7.4 at 37° C.) and the cells are equilibrated for 30 mins at 37°° C. Compounds are injected during the assay and OCR is measured using 2 min measurement periods.
2-3 wells are used per condition and averaged over three plates (n=6-9). Statistical significance is determined by two-way ANOVA with Bonferroni's posttest.
Activities are reported as binned EC50 values: A=5 μM or less; B=>5 to 20 μM; C=over 20 μM; NA=not active.

Question: Which EC50 does the source give for Oc1nc2nonc2cc1Nc1cc(C(F)(F)F)cc(C(F)(F)F)c1 [1-243, 6-((3,5-bis(trifluoromethyl)phenyl)amino)-[1,2,5]oxadiazolo[3,4-b]pyridin-5-ol] here?
Answer: Its EC50 is ≤ 5 µM.

Question: With Oc1nc2nonc2nc1Nc1ccc(Cl)cc1 [1-21, 6-((4-Chlorophenyl)amino)-[1,2,5]oxadiazolo[3,4-b]pyrazin-5-ol] as the compound, how does the EC50 read?
Answer: Its EC50 is 5 to 20 µM.

Question: How did the EC50 turn out when Cc1ccc(Nc2nc3nonc3nc2O)cc1 [1-58, 6-(p-Tolylamino)-[1,2,5]oxadiazolo[3,4-b]pyrazin-5-ol] was run?
Answer: Its EC50 is > 20 µM.

Question: With CCCCC#Cc1ccc(Nc2nc3nonc3nc2O)c(F)c1 [1-63, 6-((2-Fluoro-4-(hex-1-yn-1-yl)phenyl)amino)-[1,2,5]oxadiazolo[3,4-b]pyrazin-5-ol] as the compound, how does the EC50 read?
Answer: The EC50 was ≤ 5 µM.

Question: For N#Cc1cc(-c2ccc(Nc3nc4nonc4nc3O)cc2)ccc1F [1-129, 4-fluoro-4′-((6-hydroxy-[1,2,5]oxadiazolo[3,4-b]pyrazin-5-yl)amino)-[1,1′-biphenyl]-3-carbonitrile], which EC50 is on record?
Answer: The EC50 was 5 to 20 µM.

Question: With Oc1nc2nonc2nc1Nc1cccc(-c2ccc(F)c(C(F)F)c2)c1 [1-114, 6-((3′-(difluoromethyl)-4′-fluoro-[1,1′-biphenyl]-3-yl)amino)-[1,2,5]oxadiazolo[3,4-b]pyrazin-5-ol] as the compound, how does the EC50 read?
Answer: The EC50 was ≤ 5 µM.

Question: For Oc1nc2nonc2cc1Nc1ccc(OC(F)(F)F)c(F)c1 [1-230, 6-((3-fluoro-4-(trifluoromethoxy)phenyl)amino)-[1,2,5]oxadiazolo[3,4-b]pyridin-5-ol], which EC50 is on record?
Answer: The EC50 was > 20 µM.

Question: With Oc1nc2nonc2nc1Nc1ccccc1F [1-3, 6-((2-Fluorophenyl)amino)-[1,2,5]oxadiazolo[3,4-b]pyrazin-5-ol] as the compound, how does the EC50 read?
Answer: The EC50 was 5 to 20 µM.

Question: Which EC50 does the source give for CCCCCCc1ccc(Nc2nc3nonc3nc2O)c(F)c1 [1-67, 6-((2-Fluoro-4-hexylphenyl)amino)-[1,2,5]oxadiazolo[3,4-b]pyrazin-5-ol] here?
Answer: The EC50 was ≤ 5 µM.

Question: For CC(=O)COc1nc2nonc2nc1Nc1ccc(-c2ccc(F)cc2)cc1 [1-190, 1-((6-((4′-fluoro-[1,1′-biphenyl]-4-yl)amino)-[1,2,5]oxadiazolo[3,4-b]pyrazin-5-yl)oxy)propan-2-one], which EC50 is on record?
Answer: Its EC50 is ≤ 5 µM.

Question: How did the EC50 turn out when Oc1nc2nonc2nc1Nc1ccc2c(c1)OCO2 [1-87, 6-(benzo[d][1,3]dioxol-5-ylamino)-[1,2,5]oxadiazolo[3,4-b]pyrazin-5-ol] was run?
Answer: The EC50 was > 20 µM.

Question: For Oc1nc2nonc2nc1NCc1ccc(Br)cc1 [1-77, 6-((4-bromobenzyl)amino)-[1,2,5]oxadiazolo[3,4-b]pyrazin-5-ol], which EC50 is on record?
Answer: The EC50 was > 20 µM.

Question: How did the EC50 turn out when Oc1nc2nonc2nc1Nc1ccc(OC(F)(F)F)c(Br)c1 [1-39, 6-((3-Bromo-4-(trifluoromethoxy)phenyl)amino)-[1,2,5]oxadiazolo[3,4-b]pyrazin-5-ol] was run?
Answer: Its EC50 is ≤ 5 µM.

Question: COc1cccc(-c2ccc(Nc3nc4nonc4nc3O)cc2)c1 [1-137, 6-((3′-methoxy-[1,1′-biphenyl]-4-yl)amino)-[1,2,5]oxadiazolo[3,4-b]pyrazin-5-ol] was tested. Which EC50 did it give?
Answer: The EC50 was ≤ 5 µM.

Question: With Oc1nc2nonc2nc1Nc1cccc(-c2cccc(C(F)(F)F)c2)c1 [1-135, 6-((3′-(trifluoromethyl)-[1,1′-biphenyl]-3-yl)amino)-[1,2,5]oxadiazolo[3,4-b]pyrazin-5-ol] as the compound, how does the EC50 read?
Answer: Its EC50 is ≤ 5 µM.

Question: Oc1nc2nonc2nc1Nc1cccc(-c2ccc(OC(F)(F)F)cc2)c1 [1-136, 6-((4′-(trifluoromethoxy)-[1,1′-biphenyl]-3-yl)amino)-[1,2,5]oxadiazolo[3,4-b]pyrazin-5-ol] was tested. Which EC50 did it give?
Answer: Its EC50 is ≤ 5 µM.

Question: For Oc1nc2nonc2nc1Nc1ccccc1Cl [1-20, 6-((2-Chlorophenyl)amino)-[1,2,5]oxadiazolo[3,4-b]pyrazin-5-ol], which EC50 is on record?
Answer: Its EC50 is 5 to 20 µM.

Question: How did the EC50 turn out when CCCCOc1ccc(Nc2nc3nonc3nc2O)cc1 [1-95, 6-((4-butoxyphenyl)amino)-[1,2,5]oxadiazolo[3,4-b]pyrazin-5-ol] was run?
Answer: The EC50 was ≤ 5 µM.

Question: For CCCC#Cc1ccc(Nc2nc3nonc3nc2O)c(F)c1 [1-62, 6-((2-Fluoro-4-(pent-1-yn-1-yl)phenyl)amino)-[1,2,5]oxadiazolo[3,4-b]pyrazin-5-ol], which EC50 is on record?
Answer: The EC50 was ≤ 5 µM.

Question: For Oc1nc2nonc2nc1Nc1ccc(C2CCCCC2)cc1 [1-205, 6-((4-cyclohexylphenyl)amino)-[1,2,5]oxadiazolo[3,4-b]pyrazin-5-ol], which EC50 is on record?
Answer: The EC50 was ≤ 5 µM.

Question: With CC(C)(C)c1ccc(Nc2nc3nonc3nc2O)cc1 [1-51, 6-((4-(tert-Butyl)phenyl)amino)-[1,2,5]oxadiazolo[3,4-b]pyrazin-5-ol] as the compound, how does the EC50 read?
Answer: The EC50 was ≤ 5 µM.

Question: Oc1nc2nonc2nc1NCc1ccc(OC(F)(F)F)cc1 [1-80, 6-((4-(trifluoromethoxy)benzyl)amino)-[1,2,5]oxadiazolo[3,4-b]pyrazin-5-ol] was tested. Which EC50 did it give?
Answer: Its EC50 is > 20 µM.

Question: How did the EC50 turn out when Oc1nc2nonc2nc1Nc1ccc(-c2cccs2)cc1 [1-106, 6-((4-(thiophen-2-yl)phenyl)amino)-[1,2,5]oxadiazolo[3,4-b]pyrazin-5-ol] was run?
Answer: The EC50 was 5 to 20 µM.

Question: Which EC50 does the source give for Oc1nc2nonc2nc1Nc1cccc(-c2ccc(C(F)(F)F)nc2)c1 [1-115, 6-((3-(6-(trifluoromethyl)pyridin-3-yl)phenyl)amino)-[1,2,5]oxadiazolo[3,4-b]pyrazin-5-ol] here?
Answer: Its EC50 is > 20 µM.

Question: Oc1nc2nonc2nc1Nc1cccc(-c2ccc3c(c2)OC(F)(F)O3)c1 [1-126, 6-((3-(2,2-difluorobenzo[d][1,3]dioxol-5-yl)phenyl)amino)-[1,2,5]oxadiazolo[3,4-b]pyrazin-5-ol] was tested. Which EC50 did it give?
Answer: Its EC50 is ≤ 5 µM.

Question: For Oc1nc2nonc2nc1Nc1ccc(OC(F)(F)F)cc1F [1-36, 6-((2-Fluoro-4-(trifluoromethoxy)phenyl)amino)-[1,2,5]oxadiazolo[3,4-b]pyrazin-5-ol], which EC50 is on record?
Answer: The EC50 was ≤ 5 µM.

Question: Oc1nc2nonc2nc1Nc1ccc(OCC(F)(F)F)cc1 [1-88, 6-((4-(2,2,2-Trifluoroethoxy)phenyl)amino)-[1,2,5]oxadiazolo[3,4-b]pyrazin-5-ol] was tested. Which EC50 did it give?
Answer: Its EC50 is > 20 µM.

Question: How did the EC50 turn out when O=C(Nc1nc2nonc2nc1OCc1ccccc1)c1ccc(C(F)(F)F)cc1 [1-196, N-(6-(benzyloxy)-[1,2,5]oxadiazolo[3,4-b]pyrazin-5-yl)-4-(trifluoromethyl)benzamide] was run?
Answer: Its EC50 is 5 to 20 µM.

Question: For Cc1ccc(Nc2nc3nonc3nc2O)cc1C [1-60, 6-((3,4-Dimethylphenyl)amino)-[1,2,5]oxadiazolo[3,4-b]pyrazin-5-ol], which EC50 is on record?
Answer: The EC50 was 5 to 20 µM.

Question: Oc1nc2nonc2nc1Nc1ccc(-c2ccc(F)cc2)cc1F [1-124, 6-((3,4′-difluoro-[1,1′-biphenyl]-4-yl)amino)-[1,2,5]oxadiazolo[3,4-b]pyrazin-5-ol] was tested. Which EC50 did it give?
Answer: Its EC50 is ≤ 5 µM.

Question: Which EC50 does the source give for Oc1nc2nonc2nc1Nc1cccc(-c2ccc(F)cc2)c1 [1-134, 6-((4′-fluoro-[1,1′-biphenyl]-3-yl)amino)-[1,2,5]oxadiazolo[3,4-b]pyrazin-5-ol] here?
Answer: Its EC50 is ≤ 5 µM.

Question: Which EC50 does the source give for Oc1nc2nonc2nc1Nc1ccc(OCC2CC2)c(C(F)(F)F)c1 [1-92, 6-((4-(cyclopropylmethoxy)-3-(trifluoromethyl)phenyl)amino)-[1,2,5]oxadiazolo[3,4-b]pyrazin-5-ol] here?
Answer: Its EC50 is ≤ 5 µM.

Question: With CCCCOc1cccc(Nc2nc3nonc3nc2O)c1 [1-96, 6-((3-butoxyphenyl)amino)-[1,2,5]oxadiazolo[3,4-b]pyrazin-5-ol] as the compound, how does the EC50 read?
Answer: The EC50 was ≤ 5 µM.

Question: For Oc1nc2nonc2nc1Nc1ccc(-c2ccc(C(F)(F)F)cc2)cc1 [1-130, 6-((4′-(trifluoromethyl)-[1,1′-biphenyl]-4-yl)amino)-[1,2,5]oxadiazolo[3,4-b]pyrazin-5-ol], which EC50 is on record?
Answer: Its EC50 is 5 to 20 µM.

Question: With Oc1nc2nonc2nc1Nc1ccc(OC(F)(F)F)c(F)c1 [1-11, 6-((3-Fluoro-4-(trifluoromethoxy)phenyl)amino)-[1,2,5]oxadiazolo[3,4-b]pyrazin-5-ol] as the compound, how does the EC50 read?
Answer: The EC50 was ≤ 5 µM.

Question: With Oc1nc2nonc2nc1Nc1ccc(-c2ccccc2)cc1 [1-103, 6-([1,1′-biphenyl]-4-ylamino)-[1,2,5]oxadiazolo[3,4-b]pyrazin-5-ol] as the compound, how does the EC50 read?
Answer: The EC50 was ≤ 5 µM.

Question: With Oc1nc2nonc2cc1Nc1ccc(OC(F)(F)F)cc1F [1-251, 6-((2-fluoro-4-(trifluoromethoxy)phenyl)amino)-[1,2,5]oxadiazolo[3,4-b]pyridin-5-ol] as the compound, how does the EC50 read?
Answer: Its EC50 is ≤ 5 µM.

Question: Oc1nc2nonc2nc1Nc1ccc(OC(F)(F)F)cc1 [1-10, 6-((4-(Trifluoromethoxy)phenyl)amino)-[1,2,5]oxadiazolo[3,4-b]pyrazin-5-ol] was tested. Which EC50 did it give?
Answer: Its EC50 is 5 to 20 µM.

Question: How did the EC50 turn out when Oc1nc2nonc2nc1Nc1ccc(-c2ccc3c(c2)OCO3)cc1 [1-122, 6-((4-(benzo[d][1,3]dioxol-5-yl)phenyl)amino)-[1,2,5]oxadiazolo[3,4-b]pyrazin-5-ol] was run?
Answer: Its EC50 is > 20 µM.

Question: With Oc1nc2nonc2nc1Nc1cc(F)cc(F)c1 [1-15, 6-((3,5-Difluorophenyl)amino)-[1,2,5]oxadiazolo[3,4-b]pyrazin-5-ol] as the compound, how does the EC50 read?
Answer: Its EC50 is 5 to 20 µM.

Question: CCCCc1ccc(Nc2nc3nonc3nc2O)cc1 [1-54, 6-((4-Butylphenyl)amino)-[1,2,5]oxadiazolo[3,4-b]pyrazin-5-ol] was tested. Which EC50 did it give?
Answer: The EC50 was ≤ 5 µM.

Question: With Oc1nc2nonc2nc1Nc1ccc(OC(F)(F)F)cc1Br [1-38, 6-((2-Bromo-4-(trifluoromethoxy)phenyl)amino)-[1,2,5]oxadiazolo[3,4-b]pyrazin-5-ol] as the compound, how does the EC50 read?
Answer: Its EC50 is ≤ 5 µM.

Question: How did the EC50 turn out when Oc1nc2nonc2nc1Nc1ccc(OC(F)(F)C(F)F)cc1 [1-28, 6-((4-(1,1,2,2-Tetrafluoroethoxy)phenyl)amino)-[1,2,5]oxadiazolo[3,4-b]pyrazin-5-ol] was run?
Answer: The EC50 was 5 to 20 µM.

Question: For Oc1nc2nonc2nc1Nc1ccc(OCC(F)(F)F)c(C(F)(F)F)c1 [1-91, 6-((4-(2,2,2-Trifluoroethoxy)-3-(trifluoromethyl)phenyl)amino)-[1,2,5]oxadiazolo[3,4-b]pyrazin-5-ol], which EC50 is on record?
Answer: The EC50 was 5 to 20 µM.
